Bounds are passed on as bounds.

This assay in a line: Binding potency against Platelet activating factor (PAF) receptor using [3H]C18-PAF as radioligand on rabbit platelet membranes.

`CCc1cccc2c1c(C(=O)c1ccc(Cn3c(C)nc4cnccc43)cc1)cn2C(=O)N(C)C` [4-Ethyl-3-[4-(2-methyl-imidazo[4,5-c]pyridin-1-ylmethyl)-benzoyl]-indole-1-carboxylic acid dimethylamide] had a Ki of 0.91 nM.
On to `Cc1nc2cnccc2n1C1CCN(C(=O)c2cn(C(=O)N(C)C)c3cc(-c4ccc(F)cc4)ccc23)CC1` [6-(4-Fluoro-phenyl)-3-[4-(2-methyl-imidazo[4,5-c]pyridin-1-yl)-piperidine-1-carbonyl]-indole-1-carboxylic acid dimethylamide], for which the affinity, expressed as Ki, was 3.4 nM.
Consider `CCOCCn1cc(C(=O)c2ccc(Cn3c(C)nc4cnccc43)cc2)c2c(C(=O)OC)cccc21` [1-(2-Ethoxy-ethyl)-3-[4-(2-methyl-imidazo[4,5-c]pyridin-1-ylmethyl)-benzoyl]-1H-indole-4-carboxylic acid methyl ester], for which the Ki turned out to be 1.1 nM.
On to `COC(=O)c1cccc2c1c(C(=O)c1ccc(Cn3c(C)nc4cnccc43)cc1)cn2C(C)C` [1-Isopropyl-3-[4-(2-methyl-imidazo[4,5-c]pyridin-1-ylmethyl)-benzoyl]-1H-indole-4-carboxylic acid methyl ester], for which the Ki was 1.3 nM.
The figure for `C#Cc1cccc2c1c(C(=O)c1ccc(Cn3c(C)nc4cnccc43)cc1)cn2C(=O)N(C)C` [4-Ethynyl-3-[4-(2-methyl-imidazo[4,5-c]pyridin-1-ylmethyl)-benzoyl]-indole-1-carboxylic acid dimethylamide] is 1.3 nM; for `CNC(=O)n1cc(C(=O)c2ccc(Cn3c(C)nc4cnccc43)cc2)c2c(C(=O)OC)cccc21` [1-Methylcarbamoyl-3-[4-(2-methyl-imidazo[4,5-c]pyridin-1-ylmethyl)-benzoyl]-1H-indole-4-carboxylic acid methyl ester] it is 1.5 nM; for `COC(=O)c1cccc2c1c(C(=O)c1ccc(Cn3c(C)nc4cnccc43)cc1)cn2S(=O)(=O)N(C)C` [1-Dimethylsulfamoyl-3-[4-(2-methyl-imidazo[4,5-c]pyridin-1-ylmethyl)-benzoyl]-1H-indole-4-carboxylic acid methyl ester] it is 4.3 nM.
Turning to `COC(=O)c1cccc2c1c(C(=O)c1ccc(Cn3c(C)nc4cccnc43)cc1)cn2C(=O)N(C)C` [1-Dimethylcarbamoyl-3-[4-(2-methyl-imidazo[4,5-b]pyridin-3-ylmethyl)-benzoyl]-1H-indole-4-carboxylic acid methyl ester], the Ki stood at 10 nM.
In the case of `Cc1cccc2c1c(C(=O)CN1CCC(n3c(C)nc4cnccc43)CC1)cn2C(=O)N(C)C` [4-Methyl-3-{2-[4-(2-methyl-imidazo[4,5-c]pyridin-1-yl)-piperidin-1-yl]-acetyl}-indole-1-carboxylic acid dimethylamide] it was 2 nM; in that of `COC(=O)c1cccc2c1c(C(=O)c1ccc(Cn3c(C)nc4cnccc43)cc1)cn2CC(=O)N(C)C` [1-Dimethylcarbamoylmethyl-3-[4-(2-methyl-imidazo[4,5-c]pyridin-1-ylmethyl)-benzoyl]-1H-indole-4-carboxylic acid methyl ester], 4.4 nM; in that of `Cc1nc2ccn(Cc3ccc(C(=O)c4cn(C(=O)N(C)C)c5cc(-c6ccc(F)cc6)ccc45)cc3)cc-2n1` [6-(4-Fluoro-phenyl)-3-[4-(2-methyl-imidazo[4,5-c]pyridin-5-ylmethyl)-benzoyl]-indole-1-carboxylic acid dimethylamide], more than 1000 nM.
The figure for `COC(=O)c1cc(Br)cc2c1c(C(=O)c1ccc(Cn3c(C)nc4cnccc43)cc1)cn2C(=O)N(C)C` [6-Bromo-1-dimethylcarbamoyl-3-[4-(2-methyl-imidazo[4,5-c]pyridin-1-ylmethyl)-benzoyl]-1H-indole-4-carboxylic acid methyl ester] is 1.4 nM; for `Cc1nc2cnccc2n1Cc1ccc(C(=O)c2cn(C(=O)N(C)C)c3cccc(OC(=O)N(C)C)c23)cc1` [Dimethyl-carbamic acid 1-dimethylcarbamoyl-3-[4-(2-methyl-imidazo[4,5-c]pyridin-1-ylmethyl)-benzoyl]-1H-indol-4-yl ester] it is 3.6 nM.
As for `COC(=O)c1cccc2c1c(C(=O)CCCCCCn1c(C)nc3cnccc31)cn2C(=O)N(C)C` [1-Dimethylcarbamoyl-3-[7-(2-methyl-imidazo[4,5-c]pyridin-1-yl)-heptanoyl]-1H-indole-4-carboxylic acid methyl ester], the Ki worked out at 9.4 nM.
In the case of `COC(=O)c1ccc2c(c1)c(C(=O)c1ccc(Cn3c(C)nc4cnccc43)cc1)cn2C(=O)N(C)C` [1-Dimethylcarbamoyl-3-[4-(2-methyl-imidazo[4,5-c]pyridin-1-ylmethyl)-benzoyl]-1H-indole-5-carboxylic acid methyl ester] it was 110 nM; in that of `Cc1nc2cnccc2n1CN1CCN(S(=O)(=O)c2cn(C(=O)N(C)C)c3cc(-c4ccc(F)cc4)ccc23)CC1` [6-(4-Fluoro-phenyl)-3-[4-(2-methyl-imidazo[4,5-c]pyridin-1-ylmethyl)-piperazine-1-sulfonyl]-indole-1-carboxylic acid dimethylamide], 1.2 nM; in that of `Cc1nc2ncccc2n1Cc1ccc(C(=O)c2cn(C(=O)N(C)C)c3cccc(Cl)c23)cc1` [4-Chloro-3-[4-(2-methyl-imidazo[4,5-b]pyridin-1-ylmethyl)-benzoyl]-indole-1-carboxylic acid dimethylamide], 0.9 nM.
Consider `COC(=O)c1cccc2c1c(C(=O)CCCCCn1c(C)nc3cnccc31)cn2C(=O)N(C)C` [1-Dimethylcarbamoyl-3-[6-(2-methyl-imidazo[4,5-c]pyridin-1-yl)-hexanoyl]-1H-indole-4-carboxylic acid methyl ester], for which the affinity corresponds to a Ki of 6.1 nM.
In the case of `COC(=O)c1cccc2c1c(C(=O)c1ccc(Cn3c(C)nc4c[n+]([O-])ccc43)cc1)cn2C(=O)N(C)C` [1-Dimethylcarbamoyl-3-[4-(2-methyl-5-oxy-imidazo[4,5-c]pyridin-1-ylmethyl)-benzoyl]-1H-indole-4-carboxylic acid methyl ester], the Ki was found to be 23 nM. Against the preceding compound, the Ki is about 3.8-fold higher.
The figure for `Cc1nc2cnccc2n1CC(=O)c1cn(C(=O)N(C)C)c2cc(-c3ccc(F)cc3)ccc12` [6-(4-Fluoro-phenyl)-3-[2-(2-methyl-imidazo[4,5-c]pyridin-1-yl)-acetyl]-indole-1-carboxylic acid dimethylamide] is more than 1000 nM; for `Cc1nc2cnccc2n1CC1CCN(C(=O)c2cn(C(=O)N(C)C)c3cc(-c4ccc(F)cc4)ccc23)CC1` [6-(4-Fluoro-phenyl)-3-[4-(2-methyl-imidazo[4,5-c]pyridin-1-ylmethyl)-piperidine-1-carbonyl]-indole-1-carboxylic acid dimethylamide] it is 2.5 nM; for `Cc1nc2cnccc2n1Cc1csc(C(=O)c2cn(C(=O)N(C)C)c3cc(-c4ccc(F)cc4)ccc23)n1` [6-(4-Fluoro-phenyl)-3-[4-(2-methyl-imidazo[4,5-c]pyridin-1-ylmethyl)-thiazole-2-carbonyl]-indole-1-carboxylic acid dimethylamide] it is 39 nM.
For the compound `COC(=O)c1[nH]c2cccc(OC)c2c1C(=O)c1ccc(Cn2c(C)nc3cnccc32)cc1` [4-Methoxy-3-[4-(2-methyl-imidazo[4,5-c]pyridin-1-ylmethyl)-benzoyl]-1H-indole-2-carboxylic acid methyl ester], the Ki came to 0.51 nM.
In turn, `COC(=O)c1cccc2c1c(S(=O)(=O)c1ccc(Cn3c(C)nc4cnccc43)cc1)cn2C(=O)N(C)C` [1-Dimethylcarbamoyl-3-[4-(2-methyl-imidazo[4,5-c]pyridin-1-ylmethyl)-benzenesulfonyl]-1H-indole-4-carboxylic acid methyl ester] registered a Ki of 13 nM. This Ki lies about 25-fold higher than the previous one.
The figure for `COC(=O)c1cccc2c1c(C(=O)c1ccc(Cn3c(C)nc4cnccc43)cc1)cn2C(=O)N1CCCC1` [3-[4-(2-Methyl-imidazo[4,5-c]pyridin-1-ylmethyl)-benzoyl]-1-(pyrrolidine-1-carbonyl)-1H-indole-4-carboxylic acid methyl ester] is 11 nM; for `CCOCCn1cc(C(=O)CN2CCC(n3c(C)nc4cnccc43)CC2)c2c(Cl)cccc21` [1-[4-Chloro-1-(2-ethoxy-ethyl)-1H-indol-3-yl]-2-[4-(2-methyl-imidazo[4,5-c]pyridin-1-yl)-piperidin-1-yl]-ethanone] it is 15 nM; for `COC(=O)c1cccc2c1c(C(=O)c1ccc(Cn3c(C)nc4cnccc43)c(F)c1)cn2C(=O)N(C)C` [1-Dimethylcarbamoyl-3-[3-fluoro-4-(2-methyl-imidazo[4,5-c]pyridin-1-ylmethyl)-benzoyl]-1H-indole-4-carboxylic acid methyl ester] it is 5 nM.
In the case of `COC(=O)c1cccc2c1c(C(=O)c1ccc(Cn3c(C)nc4cnccc43)cc1)cn2CC(=O)C(C)(C)C` [1-(3,3-Dimethyl-2-oxo-butyl)-3-[4-(2-methyl-imidazo[4,5-c]pyridin-1-ylmethyl)-benzoyl]-1H-indole-4-carboxylic acid methyl ester] it was 0.67 nM.
`Cc1nc2cnccc2n1Cc1ccc(S(=O)(=O)c2cn(C(=O)N(C)C)c3ccccc23)cc1` [3-[4-(2-Methyl-imidazo[4,5-c]pyridin-1-ylmethyl)-benzenesulfonyl]-indole-1-carboxylic acid dimethylamide] showed a Ki of 12 nM.
Regarding `COC(=O)c1cccc2c1c(C(=O)c1ccc(Cn3c(C)nc4cnccc43)s1)cn2C(=O)N(C)C` [1-Dimethylcarbamoyl-3-[5-(2-methyl-imidazo[4,5-c]pyridin-1-ylmethyl)-thiophene-2-carbonyl]-1H-indole-4-carboxylic acid methyl ester], the inhibition constant (Ki) came to 8.2 nM. The Ki values of the last two compounds are within 1.5-fold of each other.
`Cc1nc2cnccc2n1CCCCCC(=O)c1cn(C(=O)N(C)C)c2cccc(-c3ccc(F)cc3)c12` [4-(4-Fluoro-phenyl)-3-[6-(2-methyl-imidazo[4,5-c]pyridin-1-yl)-hexanoyl]-indole-1-carboxylic acid dimethylamide] had an inhibition constant Ki of 3.2 nM.
The figure for `Cc1nc2cnccc2n1Cc1ccc(C(=O)c2cn(C(=O)N(C)C)c3ccc(-c4ccc(F)cc4)cc23)cc1` [5-(4-Fluoro-phenyl)-3-[4-(2-methyl-imidazo[4,5-c]pyridin-1-ylmethyl)-benzoyl]-indole-1-carboxylic acid dimethylamide] is 190 nM.

For orientation: Ki means the equilibrium dissociation constant of an inhibitor or competing ligand from its target. Read a low Ki as tighter binding.
